Results as given in patent US6677361B2, “Topical formulations for the transdermal delivery of niacin and methods of treating hyperlipidemia” (University of Kentucky Research Foundation, priority 2000, dated 2004).

Tests used:
hairless mice = assay: Erythematous response after topical application of nicotinic acid esters to hairless mice; type: in vivo; settings: for Erythematous Response: topical, 0.5 to 2.0% (wt/wt) in 200 mg lotion daily for one week, hairless mice; for cutaneous vasodilation: topical niacin esters
Protocol: Female hairless mice (HRS-J. 6-8 weeks old were used.) These were housed in solid bottom cages provided with sterile feed and water […], with a 14:10 light-dark cycle. The nicotinic acid esters of Example 1 were applied with a gloved finger daily to the backs of hairless mice in 200 mg of Vanicream Lite™ skin care lotion (Pharmaceutical Specialties, Inc., containing purified water, white petrolatum, ceteareth alcohol and ceteareth-20, propylene glycol, sorbitol solution, simethicone, glyceryl monostearate, polyethylene glycol monostearate, sorbic acid and BHT) at concentrations in the range of 0.5 to 2.0% (wt/wt) for one week. Control mice received 200 mg of the lotion alone. […] Dorsal and ventral skin samples were immediately frozen in liquid nitrogen and stored at −80° C.

[1] = test system: apoB100/CETP double transgenic mice; assay: Plasma lipid profiles of apoB100/CETP double transgenic mice, transdermal lauryl niacin ester vs oral niacin, 90 days; type: in vivo
Protocol: Niacin intake was estimated from the water consumed.
For topical administration, niacin lauryl esters was applied daily to the shaved backs of mice in 200 mg of lotion at concentrations of 1, 2, 5 and 10% (wt/wt) for 13 weeks. Per 25-g mouse, the daily topical doses would be in the range of 34 to 340 mg/kg as niacin. Control mice received equal amounts of the vehicle lotion alone. A lipid analysis was performed as described in Example 4.
Improvement of lipid profiles of apoB100/CETP transgenic mice treated with niacin prodrug. The effect of transdermal delivery of lauryl niacin ester on plasma lipid profiles in a comparison with oral niacin in the apoB100/CETP double transgenic mice for 90 days. A total of six groups of six animals were used in this study. For topical administration, lauryl niacin ester was applied daily to the shaved backs of mice. For oral administration, niacin (sodium salt) was dissolved in the drinking water.

mice = settings: oral niacin; study not named at the place
Protocol: Additionally, a plasma lipid analysis was performed by taking fasting (16 h) blood samples of the hairless mice were obtained at the beginning, at 30 days and 60 days from the retroorbital plexus, and at the end of treatment by cardiac puncture. The animals were euthanized by cardiac injection of pentobarbital prior to blood collection. Blood was collected into microfuge tubes containing 10 μl of heparin, plasma separated by centrifugation at 2,000×g for 15 minutes and stored at -80° C. until analysis within 1 week. Total cholesterol, HDL-C and triglycerides were measured enzymatically, using a clinical chemistry analyzer Syncrhon CX7 by Beckman). Female apoB/CETP double transgenic mice (Taconic Biotechnology, Germantown, N.Y.) were divided into 6 groups and housed in groups of 6 animals per. […] For oral administration, niacin (sodium salt) was dissolved in drinking water at a concentration of 0.75% (0.63% as free acid). Niacin intake was estimated from the water consumed. The estimated daily niacin intake was approximately 1,400 mg/kg. The oral dose used was 760 mg/kg/day and the topical dose was 250 mg/kg/day as niacin.

[2] = topical, daily to shaved backs, one-fourth the dose of the oral treatment
[3] = oral, sodium salt in drinking water

Erythematous Response (hairless mice) | SMILES | also measured
Yes | CCCCCCOC(=O)c1cccnc1 [6 carbons] | 
Yes | CCCCCCCCOC(=O)c1cccnc1 [8 carbons] | 
Slight | CCCCCCCCCCOC(=O)c1cccnc1 [10 carbons] | Erythematous Response (hairless mice; listed as C10 ester): reduced erythematous response
No | CCCCCCCCCCCCOC(=O)c1cccnc1 [12 carbons, lauryl nicotinate] | HDL-C elevated by [1, 2]: 8%; LDL-C fraction lowered by [1, 2]: 38%; total cholesterol lowered by [1, 2]: 15%; triglycerides lowered by [1, 2]: 33%; cutaneous vasodilation (hairless mice): no cutaneous vasodilation
No | CCCCCCCCCCCCCOC(=O)c1cccnc1 [13 carbons] | 
No | CCCCCCCCCCCCCCOC(=O)c1cccnc1 [14 carbons, myristyl nicotinate] | cutaneous vasodilation (hairless mice): no cutaneous vasodilation

Continued, compound first:

SMILES | Erythematous Response (hairless mice) | also measured
COC(=O)c1cccnc1 [1 carbon] | Yes | 
CCOC(=O)c1cccnc1 [2 carbons] | Yes | 
CCCCOC(=O)c1cccnc1 [4 carbons] | Yes | 
CCCCCCCCCCCCCCCOC(=O)c1cccnc1 [15 carbons] | No | 
CCCCCCCCCCCCCCCCOC(=O)c1cccnc1 [16 carbons] | No | 
CCCCCCCCCCCCCCCCCCOC(=O)c1cccnc1 [18 carbons] | No | 
O=C(O)c1cccnc1 [niacin, nicotinic acid] |  | total cholesterol lowered by (mice): 12%; HDL-C fraction lowered by [1, 3]: 13%; LDL fraction lowered by [1, 3]: 45%; total cholesterol lowered by [1, 3]: 29%; triglycerides lowered by [1, 3]: 37%
